Legend:
FGF23 = target: T1, FGF23 (Homo sapiens, UniProt Q9GZV9); experiment: Plate-based binding assay, FGF23 coated, FLAG-sKL detected with anti-FLAG HRP; conditions: 2 mM glucosamine or 12.5 ng/ml tunicamycin for 48 hours
T1 construct: purchased R&D Systems 2604FG025/CF (human) or 2629FG025/CF (mouse)
Description: (§1) Proteins were coated on 96-well plates (MaxiSorp; 439454, Thermo Fisher Scientific), and proteins were added to wells in 100 μl of enzyme-linked immunosorbent assay (ELISA) coating buffer (E107, Bethyl Laboratories) with a lid placed overtop and incubated at 4° C. overnight. Plates were washed 5× with 350 μl of assay buffer (50 mM Tris [pH 7.4], 200 mM NaCl, 0.01% Tween 20) on a 50 TS microplate washer (BioTek). Plates were blocked for 1 hour in 200 μl of assay buffer with 0.5% BSA. Plates were washed as before, and proteins were incubated on plates in 100 μl of assay buffer with 0.5% BSA. Proteins or heparin was incubated in orders described in the respective figure legends. Assays using FLAG-tag-based detection were incubated with anti-FLAG coupled to HRP at 1:20,000, and assays using Fc detection were incubated with anti-human Fc coupled to HRP at 1:10,000. […] Reactions were stopped with ELISA stop solution (E115, Bethyl Laboratories) and analyzed using the Synergy HI plate reader (BioTek) at 450 nm wavelength. […] As a control to remove background absorbance values, wells were coated with an equal amount of BSA to match the amount of protein coated in experimental wells and treated the same as experimental wells. […]

FGF2 binding to FGFR1c = target: T2, FGF2 binding to FGFR1c (Homo sapiens, UniProt P11362); experiment: Plate-based binding of paracrine FGF to Fc-FGFR1c with heparin and/or sKL; conditions: absence of sKL
T2 construct: a chimeric protein consisting of the FGFR1 ectodomain and the Fc region of a human IgG; purchased R&D Systems 233-FB/CF; 658FR050
T2 sequence (P11362 22-376 limits assumed): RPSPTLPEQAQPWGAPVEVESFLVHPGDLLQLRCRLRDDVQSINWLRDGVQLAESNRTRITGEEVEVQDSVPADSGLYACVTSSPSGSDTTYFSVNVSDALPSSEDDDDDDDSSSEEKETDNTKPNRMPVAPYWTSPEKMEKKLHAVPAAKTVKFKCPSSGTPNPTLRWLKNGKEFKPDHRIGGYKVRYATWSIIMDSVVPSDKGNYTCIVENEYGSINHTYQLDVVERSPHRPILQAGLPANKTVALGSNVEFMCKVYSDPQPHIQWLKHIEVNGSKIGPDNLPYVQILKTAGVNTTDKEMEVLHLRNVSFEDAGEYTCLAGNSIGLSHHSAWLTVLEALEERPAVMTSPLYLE
Description: Proteins were coated on 96-well plates (MaxiSorp; 439454, Thermo Fisher Scientific), and proteins were added to wells in 100 μl of enzyme-linked immunosorbent assay (ELISA) coating buffer (E107, Bethyl Laboratories) with a lid placed overtop and incubated at 4° C. overnight. Plates were washed 5× with 350 μl of assay buffer (50 mM Tris [pH 7.4], 200 mM NaCl, 0.01% Tween 20) on a 50 TS microplate washer (BioTek). Plates were blocked for 1 hour in 200 μl of assay buffer with 0.5% BSA. Plates were washed as before, and proteins were incubated on plates in 100 μl of assay buffer with 0.5% BSA. Proteins or heparin was incubated in orders described in the respective figure legends. Assays using FLAG-tag-based detection were incubated with anti-FLAG coupled to HRP at 1:20,000, and assays using Fc detection were incubated with anti-human Fc coupled to HRP at 1:10,000. Plates were washed as above, and 100 μl of 3,3′,5,5′-tetramethylbenzidine (TMB) substrate (E102, Bethyl Laboratories) was added for 15 to 20 minutes until positive wells developed a dark blue color. Reactions were stopped with ELISA stop solution (E115, Bethyl Laboratories) and analyzed using the Synergy HI plate reader (BioTek) at 450 nm wavelength. […] As a control to remove background absorbance values, wells were coated with an equal amount of BSA to match the amount of protein coated in experimental wells and treated the same as experimental wells. To study the effects of sKL on the binding between paracrine FGFs and FGFRs, plates were run as above except coated with paracrine FGFs. Fc-FGFR1 was preincubated with sKL or vehicle for 60 minutes, and then the combination was added to wells and the assay was run as before.

[1] = test system: phosphorylated ERK in HEK293T cells; experiment: ERK phosphorylation in serum-starved HEK293 cells (Western blotting); format: cell-based, human; conditions: FGF 1.1 nM for 10 minutes, absence of sKL
Description: The sample (20 μl) was loaded onto Mini-PROTEAN TGX Precast Gel 4-20% for experiments with <9 samples (4568094, Bio-Rad) or Criterion TGX Precast Gel 4-20% (5678094, Bio-Rad) for experiments with >9 samples. Gels were run in 1× Tris/Glycine/SDS buffer (1610732, Bio-Rad) at 150 V and stopped when the sample dye reached the end of the gel. Gels were removed and electrotransferred via a semi-dry cassette (1703940, Bio-Rad) in I× Tris/Glycine buffer (1610734, Bio-Rad) with 20% methanol. Gels were transferred onto polyvinylidene diflouride membranes (IPVH00010, Millipore) at 20 V for 1 hour. Membranes were then blocked in 5% dried milk with 0.5% Tween 20 diluted in Tris-buffered saline (TBST; pH 7.5) for 1 hour and probed with antibodies against specific antigens at 1:1000 in TBST with 5% dried milk. Blots were washed 3× for 5 minutes in TBST and probed with HRP-coupled secondary antibodies against specific species at 1:10,000 in TBST with 5% dried milk. Membranes were imaged on the SRX-101A X-ray film developer (Konica Minolta).
To determine the cellular activity of paracrine FGFs, the activation/phosphorylation of ERK in HEK293 cells after treatment was studied. […] Twenty microliters of samples was loaded onto 12% SDS-PAGE gels and analyzed using Western blotting for total and phosphorylated ERK.

FGFR1c = target: T3, FGFR1c (Homo sapiens, UniProt P11362); experiment: Plate-based binding assay, FGFR1c coated, FLAG-sKL detected with anti-FLAG HRP; conditions: 12.5 ng/ml tunicamycin for 48 hours
T3 construct: Fc-coupled FGFR ectodomains were immobilized on protein A/G beads; purchased R&D Systems 658FR050
Description: as §1

T1 sequence (Q9GZV9 25-251, species assumed): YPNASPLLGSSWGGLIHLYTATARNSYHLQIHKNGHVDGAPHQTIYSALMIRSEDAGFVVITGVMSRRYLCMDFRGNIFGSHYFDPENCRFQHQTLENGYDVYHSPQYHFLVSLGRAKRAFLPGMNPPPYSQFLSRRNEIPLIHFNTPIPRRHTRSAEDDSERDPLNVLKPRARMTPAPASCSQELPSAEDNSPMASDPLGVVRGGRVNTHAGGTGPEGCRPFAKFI

FGF2 binding to FGFR1c (FGF2 binding to FGFR1c)	Compound	FGF23 binding affinity of sKL in media of inhibitor-treated HEK293 cells (FGF23)	ERK phosphorylation induced by FGF [1]	FGFR1c binding of sKL in media of inhibitor-treated HEK293 cells (FGFR1c)
–	N[C@H]1C(O)O[C@H](CO)[C@@H](O)[C@@H]1O (some centres unmarked) [Glucosmine, glucosamine, reference compound]	had an effect	–	–
FGFR1c bound FGF2	FGF2: recombinant human FGF2 from R&D Systems	–	induced ERK phosphorylation	–
–	tunicamycin [reference compound]	much higher FGF23 binding affinity	–	did not affect the FGFR1c binding

Reference: patent US20240384250A1, “FIBROBLAST GROWTH FACTOR 23 MODULATING COMPOUNDS” (THE UAB RESEARCH FOUNDATION, priority 2021, published 2024)
